The supplement of paper PMC10307832

Experiments:
Test in all cases: relative viability (nuclei count vs DMSO), 5 days (fraction); higher = more cells survive
Palbociclib = compound: CC(=O)c1c(C)c2cnc(Nc3ccc(N4CCNCC4)cn3)nc2n(C2CCCC2)c1=O [Palbociclib]
Procedure, shortened: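 A plate was accepted only when its control CV was below 25% and the cells had doubled at least once. Viability is defined from nuclear counts as treated wells divided by vehicle wells, with the median taken across plates. That median covers lung cancer cell lines grown in 1536-well plates, dosed by pinning at five √10-spaced library-drug concentrations, and counted in MetaXpress from 4× Hoechst images after 5 days.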

Palbociclib + Foretinib = compound: CC(=O)c1c(C)c2cnc(Nc3ccc(N4CCNCC4)cn3)nc2n(C2CCCC2)c1=O [Palbociclib] + COc1cc2c(Oc3ccc(NC(=O)C4(C(=O)Nc5ccc(F)cc5)CC4)cc3F)ccnc2cc1OCCCN1CCOCC1 [Foretinib] (partner 0.25 µM)
Procedure, shortened: (§1)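 Relative viability equals treated-well nuclei counts divided by vehicle-well nuclei counts. Counts came from 4× images of lung cancer cell lines grown in 1536-well plates for 5 days after pin-tool dosing on the day after seeding. Dosing used one drug alone or a fixed anchor-drug dose plus five library-drug doses (not always all listed) in √10 steps, and values are medians of duplicate plates.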

Palbociclib + Pemetrexed = compound: CC(=O)c1c(C)c2cnc(Nc3ccc(N4CCNCC4)cn3)nc2n(C2CCCC2)c1=O [Palbociclib] + Nc1nc2[nH]cc(CCc3ccc(C(=O)N[C@@H](CCC(=O)O)C(=O)O)cc3)c2c(=O)[nH]1 [Pemetrexed] (partner 0.2 µM)
Procedure, shortened: as §1

| Cell Line | relative viability (Palbociclib; 0.01 µM) | relative viability (Palbociclib; 0.1 µM) | relative viability (Palbociclib; 0.3162 µM) | relative viability (Palbociclib; 0.5 µM, anchor plate) | relative viability (Palbociclib; 1 µM) | relative viability (Palbociclib + Foretinib; first compound 0.01 µM) | relative viability (Palbociclib + Foretinib; first compound 0.1 µM) | relative viability (Palbociclib + Foretinib; first compound 0.3162 µM) | relative viability (Palbociclib + Foretinib; first compound 1 µM) | relative viability (Palbociclib + Pemetrexed; first compound 0.01 µM) | relative viability (Palbociclib + Pemetrexed; first compound 0.03162 µM) | relative viability (Palbociclib + Pemetrexed; first compound 0.1 µM) | relative viability (Palbociclib + Pemetrexed; first compound 0.3162 µM) | relative viability (Palbociclib + Pemetrexed; first compound 1 µM) | relative viability (Palbociclib + Foretinib; first compound 0.03162 µM) | relative viability (Palbociclib; 0.03162 µM) |
| --- | --- | --- | --- | --- | --- | --- | --- | --- | --- | --- | --- | --- | --- | --- | --- | --- |
| LC-2-ad | 0.902 | 0.816 | 0.73 | 0.479 | 0.518 | 0.909 | 0.687 | 0.687 | 0.481 | 0.271 | 0.289 | 0.318 | 0.392 | 0.363 |  |  |
| LCLC-97TM1 | 1.03 | 0.657 | 0.741 | 0.225 | 0.272 | 0.861 | 0.854 | 0.67 | 0.514 | 0.201 |  | 0.168 | 0.156 | 0.167 | 0.883 |  |
| LCLC-103H | 1 | 0.858 | 0.833 | 0.469 | 0.537 | 0.782 | 0.8 | 0.522 | 0.481 | 0.432 | 0.495 | 0.484 | 0.443 | 0.412 | 0.619 | 0.762 |
| LK-2 | 1 | 0.8 | 0.965 | 0.727 | 0.803 | 1.12 | 1.18 | 1.27 | 1.05 | 0.283 | 0.175 | 0.205 | 0.205 | 0.238 |  | 0.736 |
| LOU-NH91 | 1.09 | 0.723 | 0.702 | 0.529 | 0.608 | 0.957 | 0.678 | 0.646 | 0.533 | 0.384 | 0.396 | 0.462 | 0.492 | 0.439 | 0.86 | 0.661 |
| LU99A | 0.91 | 0.924 | 0.928 | 0.414 | 0.65 | 0.782 | 0.765 | 0.724 | 0.583 | 0.176 |  | 0.158 | 0.171 | 0.19 | 0.82 | 0.711 |
| LXF-289 | 1.01 | 0.928 | 0.899 | 0.593 | 0.796 | 0.977 | 0.955 | 0.896 | 0.828 | 0.887 | 0.733 | 0.793 | 0.793 | 0.681 | 0.926 | 0.878 |
| NCI-H23 | 0.973 | 0.765 | 0.877 | 0.538 | 0.593 | 0.954 | 1.11 | 0.962 | 0.69 | 0.596 | 0.694 | 0.492 | 0.67 | 0.443 |  | 0.417 |
| NCI-H322M | 0.888 | 0.633 | 0.648 | 0.492 | 0.502 | 0.977 | 0.616 | 0.641 | 0.414 | 0.604 | 0.499 | 0.651 | 0.573 | 0.362 | 0.776 | 0.825 |
| NCI-H358 | 0.986 | 0.718 | 0.543 | 0.138 | 0.277 | 0.718 | 0.523 | 0.412 | 0.226 | 0.167 | 0.163 | 0.166 | 0.186 | 0.135 | 0.545 | 0.675 |
| NCI-H441 | 0.829 | 0.741 | 0.741 | 0.235 | 0.5 | 0.75 | 0.571 | 0.701 | 0.373 | 0.276 | 0.266 | 0.258 | 0.236 | 0.257 | 0.965 | 0.655 |
| NCI-H460 | 0.974 | 0.912 | 0.864 | 0.199 | 0.532 | 1.01 | 0.886 | 0.8 | 0.536 | 0.0576 | 0.0539 | 0.0631 | 0.0663 | 0.057 | 0.969 | 0.81 |
| NCI-H520 | 0.915 | 0.596 | 0.549 | 0.237 | 0.36 | 0.837 | 0.522 | 0.551 | 0.373 | 0.636 | 0.573 | 0.554 | 0.331 | 0.267 | 0.563 | 0.677 |
| NCI-H522 | 1.15 | 0.949 | 0.915 | 1.02 | 0.879 |  |  |  |  | 1.2 | 0.504 | 0.99 | 1.02 | 0.932 |  | 0.616 |
| NCI-H596 | 0.894 | 0.9 | 0.876 |  | 1.04 | 0.996 | 0.836 | 0.821 | 0.953 | 0.514 | 0.617 | 0.514 | 0.52 | 0.497 |  | 0.775 |
| NCI-H647 | 1.06 | 0.865 | 0.82 | 0.415 | 0.597 | 1.21 | 1.13 | 1.07 | 0.964 | 0.167 | 0.171 | 0.2 | 0.179 | 0.188 | 1.17 | 0.781 |
| NCI-H650 | 0.971 | 0.711 | 0.794 | 0.327 | 0.516 | 1.05 | 0.839 | 0.824 | 0.639 | 0.946 |  | 0.7 | 0.725 | 0.483 | 0.862 |  |
| NCI-H661 | 0.968 | 0.765 | 0.611 | 0.415 | 0.455 | 1.01 | 0.695 | 0.626 | 0.495 | 0.878 | 0.792 | 0.645 | 0.571 | 0.416 | 0.792 | 0.862 |
| NCI-H727 | 0.814 | 0.653 | 0.659 | 0.625 | 0.564 | 0.879 | 0.636 | 0.596 | 0.5 |  |  |  |  |  | 0.727 | 0.786 |
| NCI-H1299 | 0.981 | 0.906 | 0.839 |  | 0.729 | 1.05 | 1.02 | 0.942 | 0.754 |  |  |  |  |  | 0.996 | 0.977 |
| NCI-H1703 | 0.912 | 0.842 | 0.444 |  | 0.345 | 0.259 | 0.287 | 0.28 | 0.292 |  |  |  |  |  | 0.308 | 0.676 |
| NCI-H1792 | 0.987 | 0.696 | 0.612 | 0.678 | 0.383 |  |  |  |  | 0.984 | 0.557 | 0.438 | 0.427 | 0.264 |  | 0.8 |
